Experimental data published in PMC4959752, “Pharmacokinetics in Wistar Rats of 5-[(4-Carboxybutanoyl)Amino]-2-Hydroxybenzoic Acid: A Novel Synthetic Derivative of 5-Aminosalicylic Acid (5-ASA) with Possible Anti-Inflammatory Activity” (PLoS ONE, 2016).
Values joined by “and” are separate entries in the source; they are usually repeats but may differ in a detail not shown here. Equal entries are not always repeated. “Also recorded” adds a separate entry of the source. Where two headings read alike, the source gives them in different places.

Key:
[1] = Log P; type: physicochemical; conditions: method not given
[2] = tested on: Wistar rats; set-up: method as in ref 37 = [37]; 37 OECD Guidelines for the Testing of Chemicals 425: Acute Oral Toxicity—Up-and-Down-Procedure (UDP). 2008.; conditions: acute toxicity; cited from earlier work
[3] = Plasma protein binding assay (ultrafiltration); type: in vitro ADME; conditions: Wistar, rat; for fraction unbound at 4 h, 1 μg/mL / fraction unbound at 4 h, 5 μg/mL / fraction unbound at 4 h, 10 μg/mL / fraction unbound at 4 h, 20 μg/mL: ultrafiltration, 37°C
Method: The resulting samples were incubated for 4 h at 37°C. After incubation, a 100 μL aliquot was removed to analyze the total concentration, and the remaining 500 μL was transferred to a 10 kD cut-off ultrafiltration device (Millipore Corporation, USA), which was centrifuged at 2,000 g for 2 h at 37°C. A 100 μL aliquot of centrifuged plasma was analyzed for the free drug concentration using the RP-HPLC method. The amount of the test compound in the ultrafiltrate was determined by interpolating the main areas of the samples on standard curves containing known amounts of C2. The percentage of protein binding was calculated using the following formula: Protein binding ratio (%) = […].

[4] = Blood-plasma partitioning (BP ratio); type: in vitro ADME, Wistar rats; conditions: Wistar rat blood, 37°C, 4 h
Method: […] The plasma was separated from blood samples, and the concentration of C2 was determined based on a standard curve prepared with blank plasma using the RP-HPLC method. […] The concentration of C2 in blood cells was assumed to be equal to its unbound concentration in the plasma.

[5] = Tissue distribution study; type: in vivo, Wistar rats
Method: […] The animals were sacrificed 10, 30, 90, 180 and 360 min after dosing (n = 3 per treatment time). The whole brain, heart, liver, spleen, lung, kidney, stomach, small intestine, colon, testicles and muscle were rapidly dissected, harvested and thoroughly rinsed in ice-cold saline to eliminate blood and other content. All tissues and organs were weighed on an analytical balance and immediately processed for analysis. Each tissue sample was homogenized with saline solution at a 1:3 (wt/v) ratio. The preparation process for analysis was the same as that described above for plasma.

[6] = Stability of C2 in rat plasma samples; type: in vitro ADME; conditions: for Difference respect the nominal concentration (%): rat plasma deproteinized samples
Method: The stability of C2 in plasma was evaluated using the QC samples at two concentrations by triplicate ([…]); these samples were stored at 25°C for 12, 24 and 36 h (short-term stability) and subjected to three freeze-thaw cycles (–20°C to 25°C). The post-preparative storage was evaluated by analyzing the ready-to-inject samples that had been refrigerated 4°C for 12, 24 and 36 h. The concentration of C2 after each storage period was related to the initial concentration of freshly prepared and immediately processed samples [40, 41].

[7] = read-out: % Bound fraction of C2 in rat plasma ± SD (converted)
[8] = read-out: % Unbound fraction of C2 in rat plasma ± SD

Q: With `O=C(O)CCCC(=O)Nc1ccc(O)c(C(=O)O)c1` [C2, 5-[(4-carboxybutanoyl)amino]-2-hydroxybenzoic acid] as the compound, how does the logP [1] read?
A: 1.3

Q: And the LD50 [2]?
A: > 2000 mg/kg

Q: What about the fraction unbound at 4 h, 1 μg/mL [3, 7] of the same compound?
A: 0.921

Q: What about the fraction unbound at 4 h, 1 μg/mL [3, 8] of the same compound?
A: 0.921 ± 0.023

Q: What about the fraction unbound at 4 h, 5 μg/mL [3, 7] of the same compound?
A: 0.925

Q: What about the fraction unbound at 4 h, 5 μg/mL [3, 8] of the same compound?
A: 0.925 ± 0.018

Q: What about the fraction unbound at 4 h, 10 μg/mL [3, 7] of the same compound?
A: 0.919

Q: What about the fraction unbound at 4 h, 10 μg/mL [3, 8] of the same compound?
A: 0.919 ± 0.007

Q: And the fraction unbound at 4 h, 20 μg/mL [3, 7]?
A: 0.898

Q: And the fraction unbound at 4 h, 20 μg/mL [3, 8]?
A: 0.898 ± 0.008

Q: And the fraction unbound at 4 h ([3]; concentrations of 1 to 20 μg/mL, read-out: unbound fraction)?
A: 0.898 to 0.925

Q: What about the fraction unbound at 4 h ([3]; summary in discussion, read-out: protein binding (converted)) of the same compound?
A: 0.9

Q: And the “BP ratio ± SD” value ([4]; 5 μg/mL)?
A: 0.71 and 0.71 ± 0.01

Q: What about the “BP ratio ± SD” value ([4]; 10 μg/mL) of the same compound?
A: 0.6 and 0.60 ± 0.03

Q: And the “crossing of blood-brain barrier / hemato-testicular barrier (presence in brain and testicles)” value ([5]; Wistar rats, i.g. and i.p.)?
A: effectively crossed the blood-brain barrier and hemato-testicular barrier; also recorded: able to cross the blood brain barrier

Q: And the tissue distribution ([5]; i.g. and i.p. routes, before the 2 h time point)?
A: widely distributed in all examined tissues

Q: What about the tissue distribution ([5]; single intragastric or oral dose (100 mg/kg), Wistar rats, 100 mg/kg) of the same compound?
A: distributed and detected in all examined tissues (including the brain and colon); also recorded: well distributed in all tissues

Q: What about the “Difference respect the nominal concentration (%)” value ([6]; Refrigeration (4°C), 12 h, 1 μg/mL) of the same compound?
A: 0.8%

Q: What about the “Difference respect the nominal concentration (%)” value ([6]; Refrigeration (4°C), 12 h, 2.5 μg/mL) of the same compound?
A: 1.5%

Q: And the “Difference respect the nominal concentration (%)” value ([6]; Refrigeration (4°C), 12 h, 25 μg/mL)?
A: 0.1%

Q: What about the “Difference respect the nominal concentration (%)” value ([6]; Refrigeration (4°C), 12 h, 100 μg/mL) of the same compound?
A: 0.5%

Q: What about the “Difference respect the nominal concentration (%)” value ([6]; Refrigeration (4°C), 24 h, 1 μg/mL) of the same compound?
A: 2.2%

Q: What about the “Difference respect the nominal concentration (%)” value ([6]; Refrigeration (4°C), 24 h, 2.5 μg/mL) of the same compound?
A: 2.6%

Q: And the “Difference respect the nominal concentration (%)” value ([6]; Refrigeration (4°C), 24 h, 25 μg/mL)?
A: 3.1%

Q: And the “Difference respect the nominal concentration (%)” value ([6]; Refrigeration (4°C), 24 h, 100 μg/mL)?
A: 0.4%

Q: And the “Difference respect the nominal concentration (%)” value ([6]; Refrigeration (4°C), 36 h, 1 μg/mL)?
A: 5.3%

Q: What about the “Difference respect the nominal concentration (%)” value ([6]; Refrigeration (4°C), 36 h, 2.5 μg/mL) of the same compound?
A: 2.9%

Q: And the “Difference respect the nominal concentration (%)” value ([6]; Refrigeration (4°C), 36 h, 25 μg/mL)?
A: 4.3%

Q: What about the “Difference respect the nominal concentration (%)” value ([6]; Refrigeration (4°C), 36 h, 100 μg/mL) of the same compound?
A: 0.6%

Q: What about the “Difference respect the nominal concentration (%)” value ([6]; Room Temperature (25°C), 12 h, 1 μg/mL) of the same compound?
A: 1.4%

Q: And the “Difference respect the nominal concentration (%)” value ([6]; Room Temperature (25°C), 12 h, 2.5 μg/mL)?
A: 1.0%

Q: What about the “Difference respect the nominal concentration (%)” value ([6]; Room Temperature (25°C), 12 h, 25 μg/mL) of the same compound?
A: 0.3%

Q: What about the “Difference respect the nominal concentration (%)” value ([6]; Room Temperature (25°C), 12 h, 100 μg/mL) of the same compound?
A: 0.3%

Q: And the “Difference respect the nominal concentration (%)” value ([6]; Room Temperature (25°C), 24 h, 1 μg/mL)?
A: 2.1%

Q: What about the “Difference respect the nominal concentration (%)” value ([6]; Room Temperature (25°C), 24 h, 2.5 μg/mL) of the same compound?
A: 2.3%

Q: And the “Difference respect the nominal concentration (%)” value ([6]; Room Temperature (25°C), 24 h, 25 μg/mL)?
A: 2.9%

Q: And the “Difference respect the nominal concentration (%)” value ([6]; Room Temperature (25°C), 24 h, 100 μg/mL)?
A: 0.7%

Q: And the “Difference respect the nominal concentration (%)” value ([6]; Room Temperature (25°C), 36 h, 1 μg/mL)?
A: 5.8%

Q: What about the “Difference respect the nominal concentration (%)” value ([6]; Room Temperature (25°C), 36 h, 2.5 μg/mL) of the same compound?
A: 2.6%

Q: What about the “Difference respect the nominal concentration (%)” value ([6]; Room Temperature (25°C), 36 h, 25 μg/mL) of the same compound?
A: 3.7%

Q: And the “Difference respect the nominal concentration (%)” value ([6]; Room Temperature (25°C), 36 h, 100 μg/mL)?
A: 1.7%

Q: And the “Difference respect the nominal concentration (%)” value ([6]; freeze–thaw (–20 to 25°C), Cycle 2 (24 h), 1 μg/mL)?
A: 2.7%

Q: And the “Difference respect the nominal concentration (%)” value ([6]; freeze–thaw (–20 to 25°C), Cycle 2 (24 h), 2.5 μg/mL)?
A: 2.9%

Q: And the “Difference respect the nominal concentration (%)” value ([6]; freeze–thaw (–20 to 25°C), Cycle 2 (24 h), 25 μg/mL)?
A: 1.7%

Q: What about the “Difference respect the nominal concentration (%)” value ([6]; freeze–thaw (–20 to 25°C), Cycle 2 (24 h), 100 μg/mL) of the same compound?
A: 0.5%

Q: And the “Difference respect the nominal concentration (%)” value ([6]; freeze–thaw (–20 to 25°C), Cycle 3 (36 h), 1 μg/mL)?
A: 6.0%

Q: And the “Difference respect the nominal concentration (%)” value ([6]; freeze–thaw (–20 to 25°C), Cycle 3 (36 h), 2.5 μg/mL)?
A: 5.1%

Q: What about the “Difference respect the nominal concentration (%)” value ([6]; freeze–thaw (–20 to 25°C), Cycle 3 (36 h), 25 μg/mL) of the same compound?
A: 1.7%

Q: What about the “Difference respect the nominal concentration (%)” value ([6]; freeze–thaw (–20 to 25°C), Cycle 3 (36 h), 100 μg/mL) of the same compound?
A: 0.6%

Q: What about the “Difference respect the nominal concentration (%)” value ([6]; freeze–thaw (–20 to 25°C), cycle 1 (12 h), 1 μg/mL) of the same compound?
A: 1.8%

Q: What about the “Difference respect the nominal concentration (%)” value ([6]; freeze–thaw (–20 to 25°C), cycle 1 (12 h), 2.5 μg/mL) of the same compound?
A: 1.8%

Q: What about the “Difference respect the nominal concentration (%)” value ([6]; freeze–thaw (–20 to 25°C), cycle 1 (12 h), 25 μg/mL) of the same compound?
A: 2.0%

Q: What about the “Difference respect the nominal concentration (%)” value ([6]; freeze–thaw (–20 to 25°C), cycle 1 (12 h), 100 μg/mL) of the same compound?
A: 0.5%

Q: And the “stability in rat plasma” value ([6]; stored at 4°C and 25°C for 36 h)?
A: stable
